Structures can show the parent of a compound that is named as a salt. Where two headings read alike, the source gives them in different places.
Test system: C. elegans
Test: microbe, parasite or virus in culture
Settings: Caenorhabditis elegans
[1] = 0 h, read-out: Percentage of motility inhibition 0 h, Table S2, C. elegans SS assay, 110 μM, 0 h, averages of 4 data points
[2] = 24 h, read-out: Percentage of motility inhibition 24 h, Table S2, C. elegans SS assay, 110 μM, 24 h, averages of 4 data points
[3] = 0 h, read-out: Percentage of motility inhibition 0 h
[4] = 24 h, read-out: Percentage of motility inhibition 24 h

Compound	inhibition at 110 µM [1] [%]	inhibition at 110 µM [2] [%]	inhibition at 110 µM [3] [%]	inhibition at 110 µM [4] [%]
Cc1nc(C(F)(F)F)c(C(=O)Nc2c(Br)cc(OC(F)(F)F)cc2Br)s1 [Thifluzamide]	69	29		
COc1cc(/C=C/C(=O)O[C@H]2CC[C@]34C[C@]35CC[C@]3(C)[C@@H]([C@H](C)CCC=C(C)C)CC[C@@]3(C)[C@@H]5CC[C@H]4C2(C)C)ccc1O [Cycloartenyl ferulate]	35	21		
CCCCC(CC)CN1CN(CC(CC)CCCC)CC(C)(N)C1 (centres unmarked) [Hexetidine]	46	39		
O=C1OCCN1/N=C/c1ccc([N+](=O)[O-])o1 [Furazolidone]	21	7		
O=C1N[C@@H]2[C@@H](O)[C@@H](O)[C@H](O)[C@@H](CO)N2C1=O [Kifunensine]	30	5		
CCC[C@H](NC(=O)[C@@H]1[C@H]2CCC[C@H]2CN1C(=O)[C@@H](NC(=O)[C@@H](NC(=O)c1cnccn1)C1CCCCC1)C(C)(C)C)C(=O)C(=O)NC1CC1 [Telaprevir]	7	0		
CC(C)=CCc1cc(-c2coc3cc(O)ccc3c2=O)ccc1O [Neobavaisoflavone]	10	21		
CCN1C[C@]2(COC)CC[C@H](OC)[C@]34C1[C@H]([C@H](OC)[C@H]23)[C@@]1(OC(C)=O)C[C@H](OC)[C@@]2(O)C[C@@H]4[C@@H]1[C@H]2OC(=O)c1ccc(OC)cc1 [Crassicauline A]	0	0		
COc1cc(O)c2c(=O)c(O[C@@H]3O[C@H](CO)[C@@H](O)[C@H](O)[C@H]3O)c(-c3ccc(O[C@@H]4O[C@H](CO)[C@@H](O)[C@H](O)[C@H]4O)cc3)oc2c1 [Complanatuside]	0	22		
C[C@@H]1O[C@@H](Oc2c(-c3ccc(O)c(O)c3)oc3cc(O)cc(O)c3c2=O)[C@H](O)[C@H](O)[C@H]1O [Quercitrin]	4	0		
Cn1c([N+](=O)[O-])cnc1COC(N)=O [Ronidazole]	9	0		
O=C(CO)[C@@H](O)[C@H](O)[C@H](O)CO [Fructose]	0	3		
C/C=C1\[C@H]2C=C(C)C[C@]1(N)c1ccc(=O)[nH]c1C2 [(‐)‐Huperzine A]	0	4		
C[C@H]1O[C@@H](O[C@H]2CC[C@@]3(C)[C@H](CC[C@@H]4[C@@H]3C[C@@H](O)[C@]3(C)[C@@H](C5=CC(=O)OC5)CC[C@]43O)C2)C[C@H](O)[C@@H]1O[C@H]1C[C@H](O)[C@H](O[C@H]2C[C@H](O)[C@H](O[C@@H]3O[C@H](CO)[C@@H](O)[C@H](O)[C@H]3O)[C@@H](C)O2)[C@@H](C)O1 [Deslanoside]	5	5		
Cc1ccnc(NS(=O)(=O)c2ccc(N)cc2)n1 [Sulfamerazine]	12	7		
C=C(C)[C@@H]1CC[C@]2(C(=O)O)CC[C@]3(C)[C@H](CC[C@@H]4[C@@]5(C)CC[C@@H](O)C(C)(C)[C@@H]5CC[C@]43C)[C@@H]12 [Epibetulinic acid]	14	17		
CN(C)[C@@H]1C(O)=C(C(N)=O)C(=O)[C@@]2(O)C(O)=C3C(=O)c4c(O)cccc4[C@@](C)(O)[C@H]3[C@H](O)[C@@H]12 [Oxytetracycline]	20	13		
C[C@@H]1CN(c2c(F)c(N)c3c(=O)c(C(=O)O)cn(C4CC4)c3c2F)C[C@H](C)N1 [Sparfloxacin]	37	11		
COc1ccc2c(c1OC)C(=O)O[C@@H]2[C@H]1c2cc3c(cc2CCN1C)OCO3 [Hydrastine]	0	19		
C=C(C)[C@@H]1CC[C@]2(C(=O)O)CC[C@]3(C)[C@H](CC[C@@H]4[C@@]5(C)CC[C@H](OC(=O)CC(C)(C)C(=O)O)C(C)(C)[C@@H]5CC[C@]43C)[C@@H]12 [Bevirimat]	3	30		
O=C1c2ccccc2-n2c1nc1ccccc1c2=O [Tryptanthrin]			11	0
Nc1nc(=O)n([C@@H]2CS[C@H](CO)O2)cc1F [Emtricitabine]	26	32		
CC(C)C[C@H](N)C(=O)O [L-Leucine]	4	11		
COc1cc2c(cc1OC)[C@H](C)NCC2 [Salsolidine]	0	0		
O=c1c(O)c(-c2cc(O)c(O)c(O)c2)oc2cc(O)ccc12 [Robinetin]	39	7		
O=C(O)CCCCC1CCSS1 (stereo not drawn) [α-Lipoic Acid]	9	3		

Compound	inhibition at 110 µM [1] [%]	inhibition at 110 µM [2] [%]	inhibition at 110 µM [3] [%]	inhibition at 110 µM [4] [%]
COc1ccc2c(c1OC)CN1CCc3cc4c(cc3C1C2)OCO4 (centres unmarked) [Tetrahydroberberine]	2	0		
CC1(C)[C@H](O)CC[C@@]2(C)[C@@H]3CC[C@](C)([C@@H](O)CO[C@@H]4O[C@H](CO)[C@@H](O)[C@H](O)[C@H]4O)C=C3CC[C@H]12 [Darutoside]	2	9		
CC(C)=CCC[C@](C)(O[C@@H]1O[C@H](CO[C@@H]2OC[C@@H](O)[C@H](O)[C@H]2O)[C@@H](O)[C@H](O)[C@H]1O)[C@H]1CC[C@]2(C)[C@@H]1[C@H](O)C[C@@H]1[C@@]3(C)CC[C@H](O[C@@H]4O[C@H](CO)[C@@H](O)[C@H](O)[C@H]4O[C@@H]4O[C@H](CO)[C@@H](O)[C@H](O)[C@H]4O)C(C)(C)[C@@H]3CC[C@]12C [Ginsenoside Rb3]	6	1		
Cc1nc(C)c(Cl)c(O)c1Cl [Clopidol]	7	11		
CC(C)=CCC[C@](C)(O[C@@H]1O[C@H](CO[C@@H]2O[C@H](CO)[C@@H](O)[C@H](O)[C@H]2O)[C@@H](O)[C@H](O)[C@H]1O)[C@H]1CC[C@]2(C)[C@@H]1[C@H](O)C[C@@H]1[C@@]3(C)CC[C@H](O[C@@H]4O[C@H](CO)[C@@H](O)[C@H](O)[C@H]4O[C@@H]4O[C@H](CO)[C@@H](O)[C@H](O)[C@H]4O)C(C)(C)[C@@H]3CC[C@]12C [Ginsenoside Rb1]	4	0		
Cc1c(C(N)=O)cc([N+](=O)[O-])cc1[N+](=O)[O-] [Dinitolmide]	16	14		
OCc1ccc(O[C@@H]2O[C@H](CO)[C@@H](O)[C@H](O)[C@H]2O)cc1 [Gastrodin]			4	8
C=CCc1ccc(O)c(-c2cc(CC=C)ccc2O)c1 [Magnolol]	0	14		
NC(=O)Cc1c[nH]c2ccccc12 [Indole‐3‐acetamide]	0	0		
O=C(/C=C/c1ccc(O[C@@H]2O[C@H](CO)[C@@H](O)[C@H](O)[C@H]2O)cc1)c1ccc(O)cc1O [Isoliquiritin]	24	2		
Nc1ccc(S(=O)(=O)Nc2ncccn2)cc1 [Sulfadiazine]	14	7		
CCOC(=O)C1=C[C@]2(CC)CCCN3CCc4c(n1c1ccccc41)[C@@H]32 [Vinpocetine]	0			
COC(=O)C1=CO[C@@H](O[C@@H]2O[C@H](CO)[C@@H](O)[C@H](O)[C@H]2O)[C@H]2[C@@H]1C=C[C@@]2(O)CO [Gardenoside]			0	8
C[C@H](CCC(=O)O)[C@H]1CC[C@H]2[C@@H]3[C@H](O)C[C@@H]4C[C@H](O)CC[C@]4(C)[C@H]3CC[C@]12C [Chenodeoxycholic Acid]	0	5		
CC(C1CC1)C(O)(Cn1cncn1)c1ccc(Cl)cc1 (centres unmarked) [Cyproconazole]	42	0		
CCN(CCO)CCCC(C)Nc1ccnc2cc(Cl)ccc12 (centres unmarked) [Hydroxychloroquine sulfate]	19	9		
CC1=C[C@H]2Cc3[nH]c(=O)ccc3[C@]3(C1)NCCC[C@H]23 [Huperzine B]			18	8
C/C=C1/C[C@@H](C)[C@@](C)(O)C(=O)OCC2=CCN3CC[C@@H](OC1=O)[C@@H]23 [Senecionine]			0	24
COc1cc([C@H]2Oc3cc([C@H]4Oc5cc(O)cc(O)c5C(=O)[C@@H]4O)ccc3O[C@@H]2CO)ccc1O [Silybin A]	22	20		
Nc1ccc(S(=O)(=O)c2ccc(N)cc2)cc1 [Dapsone]	42	24		
CC(=O)O[C@]12CCC(C)=CC[C@]13CC[C@H]2[C@@](C)(/C=C/C=C(\C)C(=O)O)OC3=O [Pseudolaric Acid A]	6	13		
N#CC(c1ccc(Cl)cc1)c1c(Cl)cc(-n2ncc(=O)[nH]c2=O)cc1Cl (centres unmarked) [Diclazuril]	28	44		
C[C@@H]1CC[C@]2(C(=O)O)CC[C@]3(C)C(=CC[C@@H]4[C@@]5(C)CC[C@H](O)C(C)(C)[C@@H]5CC[C@]43C)[C@@H]2[C@]1(C)O [Pomolic acid]	29	67		
COC(=O)N[C@H](C(=O)N1CCC[C@H]1c1nc(-c2ccc(-c3ccc(-c4c[nH]c([C@@H]5CCCN5C(=O)[C@@H](NC(=O)OC)C(C)C)n4)cc3)cc2)c[nH]1)C(C)C [Daclatasvir]	44	43		
CCN1C[C@]2(C)CC[C@H](OC)[C@@]34C1[C@]1(OCO[C@@]15C[C@H](OC)[C@H]1C[C@]3(O)[C@@H]5[C@H]1OC)[C@@H](OC(C)=O)[C@H]24 [Deltaline]	0	0		
